Test results published in US5227490A, “Fibrinogen receptor antagonists” (Merck & Co., Inc., priority 1992, dated 1993).

Experiments:
human platelets = assay: ADP-stimulated platelet aggregation assay (gel-filtered human platelets); type: cell-based; details: fibrinogen, CaCl2 1 mM, ADP-initiated, initial rate of increase of light transmittance, read-out: IC50 (inhibition of platelet aggregation)
From the text: In addition to the following preparative procedures, several examples of in-vitro bioactivity of compounds within the scope of the present invention are indicated. To illustrate, one test which is used to evaluate fibrinogen receptor antagonist activity is based on evaluation of inhibition of ADP-stimulated platelets. Aggregation requires that fibrinogen bind to and occupy the platelet fibrinogen receptor site. Inhibitors of fibrinogen binding inhibit aggregation. In the ADP-stimulated platelet aggregation assay used to determine inhibition associated with the compounds claimed in the instant invention, human platelets are isolated from fresh blood, collected into acid citrate/dextrose by differential centrifugation followed by gel filtration on Sepharose 2 B in divalent ion-free Tyrode's buffer (pH 7.4) containing 2% bovine serum albumin.
Platelet aggregation is measured at 37° C. in a Chronolog aggregometer. The reaction mixture contains gel-filtered human platelets (2×10^8 per ml), fibrinogen (100 micrograms per ml (ug/ml)), Ca^2+ (1 mM), and the compound to be tested. The aggregation is initiated by adding 10 μM ADP 1 minute after the other components are added. The reaction is then allowed to proceed for at least 2 minutes. The extent of inhibition of aggregation is expressed as the percentage of the rate of aggregation observed in the absence of inhibitor. The IC50 is the dose of a particular compound inhibiting aggregation by 50% relative to a control lacking the compound.
The test procedures employed to measure the anti-platelet aggregating activity of the compounds of the present invention are described below.
Blood was drawn into 0.1 volumes of acid citrate-dextrose (85 mM sodium citrate, 64 mM citric acid, 110 mM dextrose) by venipuncture from normal human volunteers. Platelet-rich plasma was prepared by centrifugation at 400× g for 12 minutes. PGEl (5 mg/ml) was added and platelets were collected by centrifugation at 800× g for 12 minutes. The platelet pellet was resuspended into human platelet buffer (140 mM NaCl, 7.9 mM KCl, 3.3 mM Na2 HPO4, 6 mM HEPES, 2% bovine serum albumin, 0.1% dextrose, pH 7.2) and filtered over Sepharose 2B that was previously equilibrated in human platelet buffer. Human fibrinogen ([…]) and Ca Cl2 (1 mM) were added and aggregation was initiated by the addition of […]. Aggregation was monitored by the initial rate of increase of light transmittance.

[1] = test system: fibronectin and vitronectin; details: cited from earlier work
gpIIb/IIIa complex = details: snake venom polypeptides; cited from earlier work

Row | Compound | IC50 (human platelets) [µM] | other results
1 | O=C(O)C(Cc1ccccc1)Cc1ccc(OCCCCC2CCNCC2)cc1 (centres unmarked) [CH2 Ph, 3-[4-(4-Piperidin-4-yl)butyloxyphenyl]-2-(benzyl)propanoic acid] | 115 | –
2 | O=C(NCC(Cc1ccc(OCCCCC2CCNCC2)cc1)C(=O)O)c1ccccc1 (centres unmarked) [CH2 NHC(O)Ph, 2-[4-(4-Piperidin-4-yl)butyloxy]phenylmethyl-3-(benzoylamino)propanoic acid] | 3.1 | –
3 | arginine-glycine-aspartic acid [Arg-Gly-Asp] | – | activity of the tri-peptide [1]: low activity
4 | CCCCS(=O)(=O)CC(Cc1ccc(OCCCCC2CCNCC2)cc1)C(=O)O (centres unmarked) [CH2 SO2 C4 H9, 2-[4-(4-Piperidin-4-yl)butyloxy]phenylmethyl-3-(n-butylsulfonyl)propanoic acid] | 0.65 | –
5 | CCCCS(=O)(=O)NCC(Cc1ccc(OCCCCC2CCNCC2)cc1)C(=O)O (centres unmarked) [CH2 NHSO2 C4 H9, 2-[4-(4-Piperindin-4-yl)butyloxy]phenylmethyl-3-(n-butylsulfonylamino)propanoic acid] | 2.9 | –
6 | O=C(O)C(CNCc1ccccc1)Cc1ccc(OCCCCC2CCNCC2)cc1 (centres unmarked) [CH2 NHCH2 Ph, 2-[4-(4-Piperidin-4-yl)butyloxy]phenylmethyl-3-(benzylamino)propanoic acid] | 18 | –
7 | Echistatin | – | affinity for the gpIIb/IIIa complex (gpIIb/IIIa complex): high affinity
8 | O=C(O)C(Cc1ccc(OCCCCC2CCNCC2)cc1)C(=O)O [CO2 H, 2-Carboxy-3-[4-(4-Piperidin-4-yl)butyloxyphenyl]propanoic acid] | 3.2 | –
9 | O=C(O)C(Cc1ccc(OCCCCC2CCNCC2)cc1)CS(=O)(=O)Cc1ccccc1 (centres unmarked) [CH2 SO2 CH2 Ph, 2-[4-(4-N-piperidin-4-ylbutyloxy]phenylmethyl]-3-(benzylsulfonyl)propanoic acid] | 1.6 | –
10 | O=C(O)C(O)Cc1ccc(OCCCCC2CCNCC2)cc1 (centres unmarked) [OH, 2-Hydroxy-3-[4-(4-piperidin-4-yl)butyloxyphenyl]propanoic acid] | 8.6 | –
11 | COC(=O)C(Cc1ccc(OCCCCC2CCNCC2)cc1)C(=O)O (centres unmarked) [CO2 CH3, 2-(Carbomethoxy)-3-[4-(4-piperidin-4-yl)butyloxyphenyl]propanoic acid] | 5.8 | –
